Laboratory results reported in article PMC7608815 (Science Advances, 2020).

Assays:
AtCHS = target: T1, AtCHS (Arabidopsis thaliana, UniProt P13114); experiment: LC-MS/MS product detection, end point […] h; type: biochemical; conditions: 200 uM p-coumaroyl-CoA, 30 C
T1 sequence (P13114 2-395): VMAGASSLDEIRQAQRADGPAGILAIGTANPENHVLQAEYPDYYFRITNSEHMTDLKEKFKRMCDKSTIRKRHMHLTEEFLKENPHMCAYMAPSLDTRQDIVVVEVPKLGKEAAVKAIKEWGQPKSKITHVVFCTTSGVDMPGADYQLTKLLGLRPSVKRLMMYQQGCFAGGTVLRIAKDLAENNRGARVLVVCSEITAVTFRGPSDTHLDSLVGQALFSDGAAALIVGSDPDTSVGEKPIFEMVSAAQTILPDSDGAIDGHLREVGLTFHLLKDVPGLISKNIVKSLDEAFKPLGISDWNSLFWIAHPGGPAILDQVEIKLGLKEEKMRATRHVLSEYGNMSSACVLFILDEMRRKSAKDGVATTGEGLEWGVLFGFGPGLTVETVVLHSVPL

SlMT3 = target: T2, SlMT3 (Solanum lycopersicum, UniProt D2Y3T9); experiment: yeast feeding assay, qToF-MS of methylation product; type: cell-based; conditions: 100 uM fed substrate plus endogenous yeast 3-HAA, 72 h, 30 C
T2 sequence (D2Y3T9 1-361): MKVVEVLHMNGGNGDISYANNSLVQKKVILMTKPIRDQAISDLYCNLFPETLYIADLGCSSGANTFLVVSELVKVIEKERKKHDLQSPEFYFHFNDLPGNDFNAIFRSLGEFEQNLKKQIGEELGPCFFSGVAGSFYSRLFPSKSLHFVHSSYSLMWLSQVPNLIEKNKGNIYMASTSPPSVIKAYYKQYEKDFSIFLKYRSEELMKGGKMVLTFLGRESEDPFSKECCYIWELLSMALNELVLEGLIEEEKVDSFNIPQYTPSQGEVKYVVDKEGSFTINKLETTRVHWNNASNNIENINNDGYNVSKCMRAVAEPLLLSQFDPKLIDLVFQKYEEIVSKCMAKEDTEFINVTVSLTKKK

CC(C)(COP(=O)(O)OP(=O)(O)OC[C@H]1O[C@@H](n2cnc3c(N)ncnc32)[C@H](O)[C@@H]1OP(=O)(O)O)[C@@H](O)C(=O)NCCC(=O)NCCSC(=O)CC(=O)O [malonyl-CoA]
LC-MS/MS product detection, end point 4 h (AtCHS; 200 uM malonyl-CoA, naringenin chalcone synthesis): its activities on malonyl-CoA and 3-HAA methyl ester were analyzed under the same assay conditions

COC(=O)c1cccc(O)c1N [compound 1, Methyl 2-amino-3-hydroxybenzoate]
LC-MS/MS product detection, end point 4 h (AtCHS; 200 uM 3-HAA methyl ester, amide synthesis): highest production of amide with 3-HAA methyl ester

Nc1c(O)cccc1C(=O)O [3-HAA]
yeast feeding assay, qToF-MS of methylation product (SlMT3): SlMT3 exhibited detectable activity only toward 3-HAA
